Measurements: patent publication US12006332B2, “Aminopyrimidine derivatives as phosphatidylinositol phosphate kinase inhibitors” (HiberCell, Inc., priority 2019, dated 2024)

Experiments:
[1] = biological target: T1, PIP4K2 B (Homo sapiens, UniProt P78356); experiment: Kinase Assay-PIP4K2 B (Transcreener FI); format: biochemical
T1 construct: made in house; host or cells: E. coli
T1 sequence (P78356 1-416): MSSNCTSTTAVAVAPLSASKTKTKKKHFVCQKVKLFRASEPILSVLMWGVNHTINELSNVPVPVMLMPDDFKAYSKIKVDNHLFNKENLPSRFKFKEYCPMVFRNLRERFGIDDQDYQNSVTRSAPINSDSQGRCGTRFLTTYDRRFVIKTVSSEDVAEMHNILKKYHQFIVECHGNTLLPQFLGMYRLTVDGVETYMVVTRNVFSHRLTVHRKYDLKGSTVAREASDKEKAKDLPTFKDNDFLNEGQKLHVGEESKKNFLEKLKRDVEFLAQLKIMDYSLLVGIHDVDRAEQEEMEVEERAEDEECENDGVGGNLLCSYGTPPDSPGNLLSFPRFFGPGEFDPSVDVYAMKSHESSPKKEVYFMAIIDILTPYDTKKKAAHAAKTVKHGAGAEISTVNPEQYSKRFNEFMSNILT
Excerpt: GST tagged PIP4KtypeIIA and B enzymes were overexpressed in E. Coli and purified to >80% homogeneity. Phosphatidyl inositol-5-phosphate (PI5P, Cat. #850152, Avanti Polar Lipids Inc.) was used as the lipid substrate and phosphatidyl ethanolamine (DOPE 18:1, Cat. #850725, Avanti Polar Lipids Inc.) was used as the carrier lipid for assays. Ultrapure ATP and GTP was purchased from Bellbrooke Labs. ADP Glo reagents were obtained from Promega. Transcreener FI reagent was obtained from Bellbrooke labs.
• 1. HEPES buffer mix: 200 mM HEPES pH 7.4, 50 mM MgCl2, 0.05% v/v triton X 100 • 2. HNE buffer: 20 mM HEPES, pH 7.4, 100 mM NaCl, 0.5 mM EGTA • 3. H:E buffer: 30 mM HEPES, pH 7.4, 1 mM EGTA
GST-tagged PIP4KtypeIIB (3.4 μl, 2.77 mg/mL) was diluted to 5 mL using HNE buffer to yield 5× enzyme stock (25 nM)
Lipid Preparation: In a 10 mL pyrex glass vial, […] were suspended in 2.5 mL of HEPES buffer mix and 2.5 mL of H:E buffer. The contents were mixed and sonicated for 3 min to yield a translucent lipid stock.
Compound Preparation: Compounds were stored as 5 mM stocks in neat DMSO as room temperature in glass vials. 5 mM stocks were diluted to 2 mM and then serially diluted (3×) in neat DMSO in 96 well polypropylene plates. From the serially diluted stocks, 3 μL was delivered into 250 μL of 25% DMSO (in water) to generate 5× compound stocks. Typically, the highest compound conc. was 24 μM.
The assay volume was kept at 25 μL. To each well of the reaction plate, 10 μL of lipid stock (1:1 ratio PI5P:DOPE) was delivered. This was followed by the addition of 5 μL of compound in 25% DMSO. Then, to each well, 5 μL of 25 nM (5×) typeIIB enzyme was delivered. The contents were mixed well and incubated for 1 h at 27° C. After 1 h, reaction was initiated by adding 5 μL of 500 μM GTP and the contents were mixed well with a multi-channel pipetteman. The final concentration of the reagents are as follows: 50 mM HEPES, pH 7.3, 10 mM MgCl2, 20 mM NaCl, 0.01% v/v triton-X100, 5% DMSO, 100 μM GTP, 80 μM (2 μg) PI5P, 2 μg DOPE, and 5 nM PIP4KIIB Typically, the highest conc. of compounds was 4.8 μM and the lowest conc. was 0.
After 2 h, the reaction was quenched by adding 25 μL of transcreener FI reagent. The contents were incubated at rt for 1 h and the Fluorescence (Ex: 584 Em: 623) was read using Molecular Devices Paradigm plate reader. […] The blanks were averaged and subtracted from all other wells. Using a calibration curve, RFU was converted to μM GDP (product). IC50 was calculated by plotting the residual activity (expressed as % No inhibitor control) vs. log [Inh. conc.].

[2] = biological target: T2, PIP4K2A (Homo sapiens, UniProt P48426); experiment: Kinase Assay-PIP4K2 A (ADP-Glo); format: biochemical
T2 construct: made in house; host or cells: E. coli
T2 sequence (P48426 1-406): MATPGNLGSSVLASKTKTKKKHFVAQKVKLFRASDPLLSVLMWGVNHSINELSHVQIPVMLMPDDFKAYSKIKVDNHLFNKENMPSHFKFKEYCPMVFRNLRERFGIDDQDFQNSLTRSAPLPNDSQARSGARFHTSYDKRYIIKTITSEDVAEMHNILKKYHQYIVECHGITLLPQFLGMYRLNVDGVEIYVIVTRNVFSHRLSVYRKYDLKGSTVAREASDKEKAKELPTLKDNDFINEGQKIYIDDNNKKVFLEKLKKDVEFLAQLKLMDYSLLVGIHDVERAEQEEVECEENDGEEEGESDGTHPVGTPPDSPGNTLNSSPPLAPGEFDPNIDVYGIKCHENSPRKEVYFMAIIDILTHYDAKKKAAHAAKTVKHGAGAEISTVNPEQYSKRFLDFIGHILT
Procedure: Dilution series of the compounds were prepared in DMSO at 100 times the final assay concentration (n1=n0/3 in 10 points). The compounds were further diluted to three times the assay concentration in assay buffer (20 mM MOPS pH 7.2, 25 mM magnesium chloride, 0.005% Tween 20). 6 μL of the diluted compounds were added to a 384 well assay plate followed by 9 μL of a mix consisting of 4 nM PIP4K2A (full length protein, SignalChem) and 100 μM PI(5)P diC8 (Tebu-Bio). Enzyme and compounds were pre-incubated at room temperature for 15 minutes.
Then 3 μL of a solution containing 60 μM ATP (Promega) in assay buffer was added to the wells containing compound and enzyme and mixing was performed by pipetting several times. The reaction was incubated at room temperature for 1 h. Then 18 μL of ADP-Glo™ Reagent (Promega) was added to stop the kinase reaction and deplete the unconsumed ATP, mixing was performed by pipetting several times. The plate was incubated at room temperature for 40 minutes before addition of 36 μL of Kinase Detection Reagent (Promega) to convert ADP to ATP and introduce luciferase and luciferin to detect ATP. The reaction was incubated at room temperature for 40 minutes before the luminescence was measured in a in a Victor 3V 1420 multilabel counter (Perkin Elmer).
Percent inhibition of the compounds as compared to dimethyl sulfoxide treated control samples was calculated. Compound concentration versus percent inhibition were fitted to generate IC50 values. […]

[3] = test system: MOLM-16; experiment: MOLM-16 EC50 assay; format: cell-based; details: MOLM16

Compound: COc1nc(Nc2cncc(N(C)CC(=O)N3CCNCC3)c2)ncc1-c1ccc(N2CCCC2=O)cc1 [Compound 36, 1-(4-{4-methoxy-2-[(5-{methyl[2-oxo-2-(piperazin-1-yl)ethyl]amino}pyridin-3-yl)amino]pyrimidin-5-yl}phenyl)pyrrolidin-2-one]
- IC50 [1]: 10 to 100 nM
- IC50 [2]: 1 to 10 nM
- EC50 [3]: 100 to 1000 nM

Compound: COc1nc(Nc2cncc(N3CC[C@H](N(C)C)C3)c2)ncc1-c1ccc(-c2nnccc2C)cc1 [Compound 37, N-{5-[(3S)-3-(dimethylamino)pyrrolidin-1-yl]pyridin-3-yl}-4-methoxy-5-[4-(4-methylpyridazin-3-yl)phenyl]pyrimidin-2-amine]
- IC50 [1]: 10 to 100 nM
- IC50 [2]: 10 to 100 nM
- EC50 [3]: 10 to 100 nM

Compound: COc1nc(Nc2cncc(N3CC[C@H](N(C)C)C3)c2)ncc1-c1ccc(N2CCCC2=O)cc1 [Compound 38, 1-{4-[2-({5-[(3S)-3-(dimethylamino)pyrrolidin-1-yl]pyridin-3-yl}amino)-4-methoxypyrimidin-5-yl]phenyl}pyrrolidin-2-one]
- IC50 [1]: 10 to 100 nM
- IC50 [2]: 10 to 100 nM
- EC50 [3]: 10 to 100 nM

Compound: COc1nc(Nc2cncc(N(C)CCC(=O)N3CCNCC3)c2)ncc1-c1ccc(N2CCCC2=O)cc1 [Compound 39, 1-(4-{4-methoxy-2-[(5-{methyl[3-oxo-3-(piperazin-1-yl)propyl]amino}pyridin-3-yl)amino]pyrimidin-5-yl}phenyl)pyrrolidin-2-one]
- IC50 [1]: 10 to 100 nM
- IC50 [2]: 10 to 100 nM
- EC50 [3]: 100 to 1000 nM

Compound: COc1nc(Nc2cncc(OCCN3CCC(F)(F)C3)c2)ncc1-c1ccc(-c2nnccc2C)cc1 [Compound 40, N-{5-[2-(3,3-difluoropyrrolidin-1-yl)ethoxy]pyridin-3-yl}-4-methoxy-5-[4-(4-methylpyridazin-3-yl)phenyl]pyrimidin-2-amine]
- IC50 [1]: 10 to 100 nM
- IC50 [2]: 10 to 100 nM
- EC50 [3]: 100 to 1000 nM

Compound: COc1nc(Nc2cncc(OCCN3CCC(F)(F)C3)c2)ncc1-c1ccc(N2CCCC2=O)cc1 [Compound 41, 1-{4-[2-({5-[2-(3,3-difluoropyrrolidin-1-yl)ethoxy]pyridin-3-yl}amino)-4-methoxypyrimidin-5-yl]phenyl}pyrrolidin-2-one]
- IC50 [1]: 10 to 100 nM
- IC50 [2]: 10 to 100 nM
- EC50 [3]: 10 to 100 nM
